Counter-ions that a name gives are not always drawn.
Molecular target: T1, irisin (Homo sapiens, UniProt Q8NAU1)
T1 sequence (Q8NAU1 80-191): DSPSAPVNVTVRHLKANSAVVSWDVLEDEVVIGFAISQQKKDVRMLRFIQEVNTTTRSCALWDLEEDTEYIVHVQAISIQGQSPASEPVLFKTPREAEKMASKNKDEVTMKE
Test: isothermal titration calorimetry
Format: binding

Kd: 14.4 µM
SMILES: CCN(C)C(=O)Oc1cccc([C@H](C)N(C)C)c1 [RT, rivastigmine tartrate]
